Series [1] deals with Serine/threonine-protein kinase PLK1 (Homo sapiens, UniProt P53350). The series can be described thus: Inhibition of PLK1 assessed as [33P]-gamma-ATP incorporation into substrate by gamma counting.
The subject of series [2] is Mus musculus. Nature of the series: Toxicity in mouse assessed as body weight loss at 90 mg/kg, po for seven consecutive days. Format: organism-based. The arrangement: dose 90 mg/kg, route oral. To be noted: in vivo.
The next series relates to A2780. The series can be described thus: Antiproliferative activity in human A2780 cells after 72 hrs by CellTiter-Glo assay. It counts as functional, cell-based. To be noted: A2780, 72 h.
Series [3] has as its system Mus musculus. The series can be described thus: Antitumor activity against human A2780 cells xenografted in mouse assessed as tumor growth inhibition at 90 mg/kg, po for seven consecutive days. It counts as functional. To be noted: read-out: GI. In general terms: Xenograft models place foreign cells or tissue in a host animal.
The subject of the next series is U2OS. The series can be described thus: Inhibition of mitosis in human U2OS cells assessed as histone H3 phosphorylation at Ser 10 residue after 2 hrs by immunoassay. It counts as functional, cell-based.
Series [4] in a line: Solubility of the compound at pH 7. It counts as physicochemical. To be noted: buffer.

Molecules are shown by their SMILES. In brackets after ≈: the same amount, converted by molar mass.

Serine/threonine-protein kinase PLK1, sequence (P53350 whole entry): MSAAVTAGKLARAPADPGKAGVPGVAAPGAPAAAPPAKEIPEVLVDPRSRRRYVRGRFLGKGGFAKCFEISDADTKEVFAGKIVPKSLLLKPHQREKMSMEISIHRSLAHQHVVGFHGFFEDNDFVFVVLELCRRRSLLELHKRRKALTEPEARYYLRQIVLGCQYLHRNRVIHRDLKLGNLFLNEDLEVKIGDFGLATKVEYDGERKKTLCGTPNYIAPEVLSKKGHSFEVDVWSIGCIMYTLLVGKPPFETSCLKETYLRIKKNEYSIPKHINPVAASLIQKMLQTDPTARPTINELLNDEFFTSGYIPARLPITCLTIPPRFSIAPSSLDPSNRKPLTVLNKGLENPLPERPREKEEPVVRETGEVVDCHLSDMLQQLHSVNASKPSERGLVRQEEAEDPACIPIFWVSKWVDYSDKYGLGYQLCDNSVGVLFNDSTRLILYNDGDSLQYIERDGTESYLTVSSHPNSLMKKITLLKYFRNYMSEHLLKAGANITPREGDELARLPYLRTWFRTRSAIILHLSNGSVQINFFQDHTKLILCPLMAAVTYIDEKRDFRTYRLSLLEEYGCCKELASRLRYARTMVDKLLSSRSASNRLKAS

The term IC50 denotes the concentration that inhibits the measured activity by half. The term solubility denotes the concentration that dissolves in the medium under given conditions. On to `CCc1cccc(CC)c1NC(=O)c1nn(C)c2c1CCc1cnc(Nc3ccc(C(=O)NC4CCN(C)CC4)cc3OC(F)(F)F)nc1-2`, for which the concentration for half-maximal inhibition (IC50) in series [1] was over 10 µM; with A2780, 1 µM; in the series on U2OS it was 0.032 µM. In addition, the Activity entry in the series with Mus musculus [2] is “Non-toxic”. Also, the inhibition in vivo at 90 mg/kg in the series with Mus musculus [3] is 53%. This compound also returned a solubility in series [4] of 45 µM (≈ 30.5 µg/mL).

The values above are taken from ChEMBL document CHEMBL1806399, “Synthesis and SAR of new pyrazolo[4,3-h]quinazoline-3-carboxamide derivatives as potent and selective MPS1 kinase inhibitors” (Bioorg Med Chem Lett, 2011).
